Several values for one entry are separate records, joined by “and”; a condition that tells them apart may be missing. Equal entries are not always repeated. Toxic doses and inconclusive results are not listed.
System: P388 leukemia ip, CD2F1 mice, survival T/C
Assay: NCI In Vivo Anticancer Drug Screen. Data for tumor model P388 Leukemia (intraperitoneal) in CD2F1 (CDF1) mice
Details: endpoint: median survival time, higher = longer survival
Summary of the method: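 Mice carrying the transplanted tumor received test compound or vehicle. Survival was recorded in each group, and the value is the treated-group measurement divided by that of the vehicle-treated control group.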

[1] = dose: 50.0 mg/kg/injection, schedule: Q01DX005 (ip), vehicle: saline with Tween-80
[2] = dose: 100.0 mg/kg/injection, schedule: Q01DX005 (ip), vehicle: saline with Tween-80
[3] = dose: 200.0 mg/kg/injection, schedule: Q01DX005 (ip), vehicle: saline with Tween-80
[4] = dose: 50.0 mg/kg/injection, schedule: Q01DX005 (ip), vehicle: saline
[5] = dose: 100.0 mg/kg/injection, schedule: Q01DX005 (ip), vehicle: saline
[6] = dose: 200.0 mg/kg/injection, schedule: Q01DX005 (ip), vehicle: saline
[7] = dose: 50.0 mg/kg/injection, schedule: Q01DX009 (ip), vehicle: saline with Tween-80
[8] = dose: 100.0 mg/kg/injection, schedule: Q01DX009 (ip), vehicle: saline with Tween-80
[9] = dose: 60.0 mg/kg/injection, schedule: Q01DX005 (ip), vehicle: saline with Tween-80
[10] = dose: 120.0 mg/kg/injection, schedule: Q01DX005 (ip), vehicle: saline with Tween-80
[11] = dose: 240.0 mg/kg/injection, schedule: Q01DX005 (ip), vehicle: saline with Tween-80
[12] = dose: 50.0 mg/kg/injection, schedule: Q01DX009 (ip), vehicle: Klucel (hydroxypropylcellulose) (HPC)
[13] = dose: 100.0 mg/kg/injection, schedule: Q01DX009 (ip), vehicle: Klucel (hydroxypropylcellulose) (HPC)
[14] = dose: 200.0 mg/kg/injection, schedule: Q01DX009 (ip), vehicle: Klucel (hydroxypropylcellulose) (HPC)
[15] = dose: 60.0 mg/kg/injection, schedule: Q01DX005 (ip), vehicle: saline
[16] = dose: 120.0 mg/kg/injection, schedule: Q01DX005 (ip), vehicle: saline
[17] = dose: 240.0 mg/kg/injection, schedule: Q01DX005 (ip), vehicle: saline
[18] = dose: 50.0 mg/kg/injection, schedule: Q01DX009 (ip), vehicle: saline
[19] = dose: 100.0 mg/kg/injection, schedule: Q01DX009 (ip), vehicle: saline

## COc1ccc(S(=O)(=O)NN=C(C(=O)O)C(=O)O)cc1
dose: 25.0 mg/kg/injection, schedule: Q01DX005 (ip), vehicle: saline with Tween-80
  T/C: 102 % of control
[1]
  T/C: 102 % of control
[2]
  T/C: 95 % of control
[3]
  T/C: 109 % of control

## CCCCCC1NC(C)(C)CO1 (stereo not drawn)
[4]
  T/C: 118 % of control
[5]
  T/C: 109 % of control
[6]
  T/C: 100 % of control

## CC(=O)N1CCC(/C(C)=N/O)CC1
[4]
  T/C: 107 % of control
[5]
  T/C: 101 % of control
[6]
  T/C: 106 % of control

## N#Cc1c(O)c(-c2ccccc2)c(=O)n2c1[nH]c1ccccc12
dose: 50.0 mg/kg/injection, schedule: Q01DX005 (ip), vehicle: Klucel (hydroxypropylcellulose) (HPC)
  T/C: 101 % of control
dose: 100.0 mg/kg/injection, schedule: Q01DX005 (ip), vehicle: Klucel (hydroxypropylcellulose) (HPC)
  T/C: 104 % of control
dose: 200.0 mg/kg/injection, schedule: Q01DX005 (ip), vehicle: Klucel (hydroxypropylcellulose) (HPC)
  T/C: 113 % of control

## CC(C)(C)OC(=O)NC(CCC(=O)O)C(=O)O (stereo not drawn)
[1]
  T/C: 100 % of control
[2]
  T/C: 97 % of control
[3]
  T/C: 103 % of control

## C=C1C[C@@H](C2OC3OC(C)(C)OC3C2OCc2ccccc2)OC1=O (stereo partly drawn)
[1]
  T/C: 116 % of control
[2]
  T/C: 124 % of control

## CC(C)=CCc1cc(O)c(CC=C(C)C)cc1O
dose: 25.0 mg/kg/injection, schedule: Q01DX009 (ip), vehicle: saline with Tween-80
  T/C: 101 % of control
[7]
  T/C: 106 % of control
[8]
  T/C: 96 % of control
dose: 200.0 mg/kg/injection, schedule: Q01DX009 (ip), vehicle: saline with Tween-80
  T/C: 96 % of control

## Cc1ccc(S(=O)(=O)OCC2COC(C(C)C)OC2)cc1 (stereo not drawn)
[9]
  T/C: 99 % of control
[10]
  T/C: 90 % of control
[11]
  T/C: 90 % of control

## CCN(CC)c1ccc2cc(-c3nc4ccccc4n3C)c(=O)oc2c1
dose: 200.0 mg/kg/injection, schedule: Q04DX003 (ip), vehicle: Klucel (hydroxypropylcellulose) (HPC)
  T/C: 183 % of control

## COc1ccc(-n2c(-c3ccc(-n4c(C)nc5ccccc5c4=O)cc3)n[nH]c2=S)cc1
dose: 37.5 mg/kg/injection, schedule: Q01DX005 (ip), vehicle: Klucel (hydroxypropylcellulose) (HPC)
  T/C: 102 % of control
dose: 75.0 mg/kg/injection, schedule: Q01DX005 (ip), vehicle: Klucel (hydroxypropylcellulose) (HPC)
  T/C: 105 % of control
dose: 150.0 mg/kg/injection, schedule: Q01DX005 (ip), vehicle: Klucel (hydroxypropylcellulose) (HPC)
  T/C: 104 % of control

## Cc1cc(C)n(C(N)=NC(=O)c2ccc([N+](=O)[O-])cc2)n1
[12]
  T/C: 99 % of control
[13]
  T/C: 101 % of control
[14]
  T/C: 106 % of control

## Cc1cc2c(c(C#N)c1C)NC=NC2C (stereo not drawn)
[7]
  T/C: 94 % of control
[8]
  T/C: 105 % of control

## COc1ccc(C2c3cc4c(cc3OC(N3CCCC3)C2C)OCO4)c(OC)c1 (stereo not drawn)
[9]
  T/C: 99 % of control
[10]
  T/C: 99 % of control
[11]
  T/C: 97 % of control

## CN(C)C(=O)N1OC2CCC1CC2
[15]
  T/C: 100 % of control
[16]
  T/C: 100 % of control
[17]
  T/C: 100 % of control

## CCCN(CCC)CN(CCC)CCC
[18]
  T/C: 106 % of control
[19]
  T/C: 105 % of control

## O=C1C(c2nc3ccccc3[nH]2)=C(O)c2ccccc21
dose: 60.0 mg/kg/injection, schedule: Q01DX005 (ip), vehicle: Klucel (hydroxypropylcellulose) (HPC)
  T/C: 87 % of control
dose: 120.0 mg/kg/injection, schedule: Q01DX005 (ip), vehicle: Klucel (hydroxypropylcellulose) (HPC)
  T/C: 87 % of control
dose: 240.0 mg/kg/injection, schedule: Q01DX005 (ip), vehicle: Klucel (hydroxypropylcellulose) (HPC)
  T/C: 87 % of control

## CS(=O)(=O)Oc1ccc2c(c1)CCC2
dose: 50.0 mg/kg/injection, schedule: Q04DX003 (ip), vehicle: saline
  T/C: 99 % of control
dose: 100.0 mg/kg/injection, schedule: Q04DX003 (ip), vehicle: saline
  T/C: 101 % of control
dose: 200.0 mg/kg/injection, schedule: Q04DX003 (ip), vehicle: saline
  T/C: 108 % of control
dose: 400.0 mg/kg/injection, schedule: Q04DX003 (ip), vehicle: saline
  T/C: 102 % of control

## O=[N+]([O-])c1ccc(/C=C/C(CCN2CCCCC2)=N\O)o1
[9]
  T/C: 104 % of control
[10]
  T/C: 104 % of control
[11]
  T/C: 100 % of control

## C[Si](C)(C)/C=C1\OC=CC(c2ccccc2)O1 (stereo not drawn)
dose: 100.0 mg/kg/injection, schedule: Q01DX001 (ip), vehicle: saline with Tween-80
  T/C: 99 % of control
dose: 200.0 mg/kg/injection, schedule: Q01DX001 (ip), vehicle: saline with Tween-80
  T/C: 100 % of control
dose: 400.0 mg/kg/injection, schedule: Q01DX001 (ip), vehicle: saline with Tween-80
  T/C: 103 % of control

## O=c1nnc(O)c2n(O)cccc1-2
[9]
  T/C: 100 % of control
[10]
  T/C: 105 % of control
[11]
  T/C: 97 % of control

## S=C1NCC(c2ccc(Cl)cc2)[Se]1 (stereo not drawn)
dose: 50.0 mg/kg/injection, schedule: Q01DX009 (ip), vehicle: DMSO
  T/C: 100 % of control
dose: 100.0 mg/kg/injection, schedule: Q01DX009 (ip), vehicle: DMSO
  T/C: 100 % of control

## CN1N=C(c2ccccc2O)/C(=C/c2c(-c3ccccc3O)[nH]n(C)c2=O)C1=O
[9]
  T/C: 94 % of control
[10]
  T/C: 86 % of control
[11]
  T/C: 87 % of control

## CC(=O)NCCCC(=O)O
dose: 200.0 mg/kg/injection, schedule: Q01DX009 (ip), vehicle: saline
  T/C: 98 % of control

## CCCCCCCCCCCCCCCCCC[N+]1([O-])CCOCC1
[18]
  T/C: 98 % of control
[19]
  T/C: 96 % of control

## S=c1[nH][nH]c(=S)s1
dose: 25.0 mg/kg/injection, schedule: Q01DX009 (ip), vehicle: Klucel (hydroxypropylcellulose) (HPC)
  T/C: 95 % of control
[12]
  T/C: 95 % of control

## O=C1CCCN1CC#CCN1CCCC1
dose: 0.79 mg/kg/injection, schedule: Q01DX001 (ip), vehicle: saline
  T/C: 97 % of control
dose: 0.79 mg/kg/injection, schedule: Q01DX005 (ip), vehicle: saline
  T/C: 100 % of control
dose: 1.56 mg/kg/injection, schedule: Q01DX001 (ip), vehicle: saline
  T/C: 103 % of control
dose: 1.56 mg/kg/injection, schedule: Q01DX005 (ip), vehicle: saline
  T/C: 97 % of control
dose: 3.12 mg/kg/injection, schedule: Q01DX001 (ip), vehicle: saline
  T/C: 105 % of control
dose: 3.12 mg/kg/injection, schedule: Q01DX005 (ip), vehicle: saline
  T/C: 97 % of control

## Cc1c(O)ccc(C(=O)C(=O)C(C)C)c1O
[12]
  T/C: 115 % of control
[13]
  T/C: 116 % of control
[14]
  T/C: 116 % of control

## CC(C)[Si]1(C(C)C)N[Si](C(C)C)(C(C)C)N1
dose: 15.0 mg/kg/injection, schedule: Q01DX005 (ip), vehicle: saline
  T/C: 115 % of control
dose: 30.0 mg/kg/injection, schedule: Q01DX005 (ip), vehicle: saline
  T/C: 105 % of control
[15]
  T/C: 98 % of control
[16]
  T/C: 106 % of control
[17]
  T/C: 97 % of control

## CC1OC(OC2C(CO)OC(O[C@H]3CC[C@@]4(C)C(=CC[C@H]5[C@@H]6C[C@@H]7O[C@]8(CC[C@@H](C)CN8)[C@@H](C)[C@@H]7[C@@]6(C)CC[C@@H]54)C3)C(O)C2O)C(O)C(O)C1O (stereo partly drawn)
dose: 12.5 mg/kg/injection, schedule: Q01DX005 (ip), vehicle: acid diluted with saline
  T/C: 101 % of control
dose: 25.0 mg/kg/injection, schedule: Q01DX005 (ip), vehicle: acid diluted with saline
  T/C: 105 % of control
dose: 50.0 mg/kg/injection, schedule: Q01DX005 (ip), vehicle: acid diluted with saline
  T/C: 105 % of control and 87 % of control
dose: 100.0 mg/kg/injection, schedule: Q01DX005 (ip), vehicle: acid diluted with saline
  T/C: 105 % of control

## CN1CCN(c2ccc([N+](=O)[O-])c3no[n+]([O-])c23)CC1
dose: 2.5 mg/kg/injection, schedule: Q01DX009 (ip), vehicle: saline
  T/C: 116 % of control
dose: 20.0 mg/kg/injection, schedule: Q01DX009 (ip), vehicle: saline
  T/C: 152 % of control

## COc1cc(C2CC(C)(OC)Oc3cc4c(cc32)OCO4)cc(OC)c1OC (stereo not drawn)
[9]
  T/C: 106 % of control and 90 % of control and 95 % of control
[10]
  T/C: 109 % of control and 95 % of control and 97 % of control

## COc1cc(C(c2c(O)c3ccccc3oc2=O)N2CCCC2)cc(OC)c1OC (stereo not drawn)
[9]
  T/C: 107 % of control
[10]
  T/C: 101 % of control
[11]
  T/C: 104 % of control
